Patent US9499535B2, “Kinase inhibitors” (ORIGENIS GMBH, priority 2011, dated 2016)

How the values were obtained:
MYLK = MYLK (Homo sapiens, UniProt Q15746); assay: MYLK assay (LanthaScreen Eu Kinase Binding Assay); details: 5 nM MYLK, 30 nM tracer 236, RT 1 h; read-out: MYLK Activites: IC50
Procedure, shortened: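 TR-FRET tracer-displacement binding: 5 nM MYLK with 2 nM Eu-anti-GST antibody and 30 nM tracer 236 in kinase buffer A, 1 h at RT. The 665/615 nm emission ratio was plotted against inhibitor concentration; IC50 from variable-slope sigmoidal fit.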

SYK kinase = molecular target: T1, SYK kinase (Homo sapiens, UniProt P43405); assay: SYK assay (OMNIA Kinase Assay, Invitrogen); type: biochemical; details: apparent Ki calculated from the IC50 using the Cheng-Prusoff equation; 1 mM ATP, 10 μM Peptide Substrate; read-out: SYK Activities: Ki
T1 construct: purchased Invitrogen, Carlsbad
Procedure, shortened: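 Reaction velocities were measured from kinetic fluorescence reads (360/485 nm, every 30 s over 30 min) of Mg2+-chelated SOX signal. Conditions were 1 mM ATP, 10 μM Omnia Tyr 7 peptide and 0.2 mM DTT at 30° C. Sigmoidal IC50 fits were converted to apparent Ki using Cheng-Prusoff.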

LRRK2 = LRRK2 (Homo sapiens, UniProt Q5S007); assay: LRRK2 assay (LanthaScreen Eu Kinase Binding Assay); details: 5 nM LRRK2, 10 nM tracer 236, RT 1 h; read-out: LRRK2 Activites: IC50
LRRK2, sequence (Q5S007 970-2527 limits assumed): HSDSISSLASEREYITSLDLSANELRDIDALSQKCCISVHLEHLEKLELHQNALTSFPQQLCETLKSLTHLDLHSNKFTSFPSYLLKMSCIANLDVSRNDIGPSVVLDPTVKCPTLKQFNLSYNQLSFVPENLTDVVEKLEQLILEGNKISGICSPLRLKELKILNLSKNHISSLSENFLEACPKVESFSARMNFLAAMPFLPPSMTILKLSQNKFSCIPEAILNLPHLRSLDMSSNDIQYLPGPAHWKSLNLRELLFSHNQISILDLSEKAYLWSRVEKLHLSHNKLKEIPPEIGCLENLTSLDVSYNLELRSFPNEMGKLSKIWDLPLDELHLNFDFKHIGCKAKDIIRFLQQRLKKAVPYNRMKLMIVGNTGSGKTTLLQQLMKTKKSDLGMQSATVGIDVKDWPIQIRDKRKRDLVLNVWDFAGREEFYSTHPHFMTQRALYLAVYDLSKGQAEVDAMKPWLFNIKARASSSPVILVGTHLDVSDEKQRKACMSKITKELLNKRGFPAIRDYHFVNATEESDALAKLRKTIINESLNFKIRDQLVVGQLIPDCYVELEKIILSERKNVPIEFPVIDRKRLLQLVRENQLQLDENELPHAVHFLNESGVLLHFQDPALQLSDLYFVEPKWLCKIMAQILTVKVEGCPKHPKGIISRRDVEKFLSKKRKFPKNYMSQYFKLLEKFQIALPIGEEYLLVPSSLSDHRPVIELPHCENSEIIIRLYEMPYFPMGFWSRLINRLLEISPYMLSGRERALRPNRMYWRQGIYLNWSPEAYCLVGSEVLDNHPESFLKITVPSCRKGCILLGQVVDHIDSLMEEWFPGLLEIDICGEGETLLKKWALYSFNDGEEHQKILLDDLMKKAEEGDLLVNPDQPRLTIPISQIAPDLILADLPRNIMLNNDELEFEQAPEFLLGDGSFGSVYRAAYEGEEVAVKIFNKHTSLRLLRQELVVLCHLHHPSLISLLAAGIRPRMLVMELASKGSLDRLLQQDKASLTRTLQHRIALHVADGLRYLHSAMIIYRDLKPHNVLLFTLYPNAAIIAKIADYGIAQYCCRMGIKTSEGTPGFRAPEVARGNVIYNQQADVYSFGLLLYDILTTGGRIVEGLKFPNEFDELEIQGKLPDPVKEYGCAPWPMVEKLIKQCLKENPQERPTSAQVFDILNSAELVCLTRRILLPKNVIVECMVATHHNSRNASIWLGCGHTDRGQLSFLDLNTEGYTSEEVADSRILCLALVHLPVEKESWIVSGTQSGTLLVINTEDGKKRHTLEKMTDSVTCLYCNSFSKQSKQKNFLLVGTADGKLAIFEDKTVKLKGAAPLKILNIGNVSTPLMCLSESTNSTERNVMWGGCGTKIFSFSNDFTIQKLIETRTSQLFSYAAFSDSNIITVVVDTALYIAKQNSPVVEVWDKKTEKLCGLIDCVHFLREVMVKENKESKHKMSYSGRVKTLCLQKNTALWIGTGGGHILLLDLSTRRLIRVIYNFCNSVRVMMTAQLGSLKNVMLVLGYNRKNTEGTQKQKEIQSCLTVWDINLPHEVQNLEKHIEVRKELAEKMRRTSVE
Procedure, shortened: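 IC50 was derived from a sigmoidal dose-response fit with variable slope, plotting emission ratio against inhibitor concentration. The read-out is loss of FRET between a europium-labelled anti-tag antibody on the kinase and a tracer displaced by inhibitor.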

MYLK, sequence (Q15746 whole entry): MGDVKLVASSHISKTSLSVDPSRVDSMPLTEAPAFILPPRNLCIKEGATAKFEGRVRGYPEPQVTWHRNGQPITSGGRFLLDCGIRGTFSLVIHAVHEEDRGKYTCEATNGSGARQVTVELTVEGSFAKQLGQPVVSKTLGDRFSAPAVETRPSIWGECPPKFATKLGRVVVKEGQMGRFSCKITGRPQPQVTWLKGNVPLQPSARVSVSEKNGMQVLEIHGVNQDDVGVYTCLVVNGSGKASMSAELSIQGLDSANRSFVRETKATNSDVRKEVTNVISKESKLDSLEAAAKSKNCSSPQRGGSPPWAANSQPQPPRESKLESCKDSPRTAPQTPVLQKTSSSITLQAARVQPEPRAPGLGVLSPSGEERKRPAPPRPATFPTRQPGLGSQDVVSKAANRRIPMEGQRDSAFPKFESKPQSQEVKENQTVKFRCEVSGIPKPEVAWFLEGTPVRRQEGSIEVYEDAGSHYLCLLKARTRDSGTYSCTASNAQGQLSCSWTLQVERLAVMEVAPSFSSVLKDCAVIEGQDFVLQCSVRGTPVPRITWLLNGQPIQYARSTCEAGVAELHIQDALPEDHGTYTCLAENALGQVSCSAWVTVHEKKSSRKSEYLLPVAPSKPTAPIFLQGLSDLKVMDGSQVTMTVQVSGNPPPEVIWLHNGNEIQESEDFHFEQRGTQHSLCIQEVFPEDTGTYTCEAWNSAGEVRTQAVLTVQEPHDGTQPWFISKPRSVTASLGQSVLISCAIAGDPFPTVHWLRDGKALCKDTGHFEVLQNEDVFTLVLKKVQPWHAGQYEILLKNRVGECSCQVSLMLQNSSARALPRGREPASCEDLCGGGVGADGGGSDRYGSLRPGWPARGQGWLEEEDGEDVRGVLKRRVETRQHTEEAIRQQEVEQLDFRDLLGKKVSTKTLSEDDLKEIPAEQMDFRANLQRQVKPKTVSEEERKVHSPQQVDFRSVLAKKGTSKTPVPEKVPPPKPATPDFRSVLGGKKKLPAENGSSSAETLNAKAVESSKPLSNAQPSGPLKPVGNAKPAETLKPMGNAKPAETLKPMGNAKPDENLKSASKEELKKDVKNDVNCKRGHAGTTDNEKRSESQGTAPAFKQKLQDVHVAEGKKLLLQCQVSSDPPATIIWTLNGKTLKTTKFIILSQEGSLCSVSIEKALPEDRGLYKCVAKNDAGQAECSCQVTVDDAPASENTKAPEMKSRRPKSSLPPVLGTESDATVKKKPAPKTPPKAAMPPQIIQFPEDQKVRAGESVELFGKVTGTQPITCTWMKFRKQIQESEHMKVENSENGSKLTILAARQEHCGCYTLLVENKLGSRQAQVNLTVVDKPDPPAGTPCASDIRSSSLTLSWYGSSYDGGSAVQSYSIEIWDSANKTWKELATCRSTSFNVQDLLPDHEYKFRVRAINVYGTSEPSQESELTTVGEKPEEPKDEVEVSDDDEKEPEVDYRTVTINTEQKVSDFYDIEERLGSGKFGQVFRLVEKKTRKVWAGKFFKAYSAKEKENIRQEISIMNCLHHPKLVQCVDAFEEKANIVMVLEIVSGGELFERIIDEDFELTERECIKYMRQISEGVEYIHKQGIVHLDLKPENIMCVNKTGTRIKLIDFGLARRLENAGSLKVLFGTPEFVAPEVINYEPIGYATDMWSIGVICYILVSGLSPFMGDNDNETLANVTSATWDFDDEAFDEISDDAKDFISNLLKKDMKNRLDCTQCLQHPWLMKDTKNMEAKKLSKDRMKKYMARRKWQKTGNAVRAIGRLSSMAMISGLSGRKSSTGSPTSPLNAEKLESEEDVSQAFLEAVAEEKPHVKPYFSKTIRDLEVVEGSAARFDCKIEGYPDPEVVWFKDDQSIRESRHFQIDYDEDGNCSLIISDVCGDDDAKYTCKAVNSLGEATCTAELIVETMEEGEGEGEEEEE

| SMILES | IC50 (MYLK) | Ki (SYK kinase) | IC50 (LRRK2) |
| --- | --- | --- | --- |
| COc1ccc2nc(Nc3ccc(N4CCN(C)CC4)c(Cl)c3)c3n[nH]cc3c2c1 [Example #195, [3-Chloro-4-(4-methyl-piperazin-1-yl)-phenyl]-(8-methoxy-2H-pyrazolo[3,4-c]quinolin-4-yl)-amine] | < 5 µM | 10 to 100 nM | 100 to 1000 nM |
| COc1cccc2nc(Nc3cc(C4CC4)[nH]n3)c3n[nH]cc3c12 [Example #199, (5-Cyclopropyl-1H-pyrazol-3-yl)-(9-methoxy-2H-pyrazolo[3,4-c]quinolin-4-yl)-amine] | < 5 µM | 10 to 100 nM | 10 to 100 nM |
| COc1cccc2nc(Nc3ccc(N4CCN(C)CC4)cc3)c3n[nH]cc3c12 [Example #201, (9-Methoxy-2H-pyrazolo[3,4-c]quinolin-4-yl)-[4-(4-methyl-piperazin-1-yl)-phenyl]-amine] | < 5 µM | 10 to 100 nM | 100 to 1000 nM |
| COc1cccc2nc(Nc3ccc(N4CCOCC4)cc3)c3n[nH]cc3c12 [Example #202, (9-Methoxy-2H-pyrazolo[3,4-c]quinolin-4-yl)-(4-morpholin-4-yl-phenyl)-amine] | < 5 µM | 10 to 100 nM | 10 to 100 nM |
| COc1cccc2nc(Nc3ccc4cn[nH]c4c3)c3n[nH]cc3c12 [Example #203, (1H-Indazol-6-yl)-(9-methoxy-2H-pyrazolo[3,4-c]quinolin-4-yl)-amine] | < 5 µM | 10 to 100 nM | 10 to 100 nM |
| COc1ccc2nc(Nc3ccc(OC)nc3)c3n[nH]cc3c2c1 [Example #206, (8-Methoxy-2H-pyrazolo[3,4-c]quinolin-4-yl)-(6-methoxy-pyridin-3-yl)-amine] | < 5 µM | 10 to 100 nM | 100 to 1000 nM |
| Cc1[nH]nc2c(Nc3ccc(N4CCN(C)CC4)cc3)nc3ccccc3c12 [Example #208, [4-(4-Methyl-piperazin-1-yl)-phenyl]-(1-methyl-2H-pyrazolo[3,4-c]quinolin-4-yl)-amine] | < 5 µM | 10 to 100 nM | 100 to 1000 nM |
| Cc1[nH]nc2c(Nc3ccc4cn[nH]c4c3)nc3ccccc3c12 [Example #209, (1H-Indazol-6-yl)-(1-methyl-2H-pyrazolo[3,4-c]quinolin-4-yl)-amine] | < 5 µM | < 10 nM | 10 to 100 nM |
| COc1ccc2nc(Nc3cccc(N4CCNCC4)c3)c3n[nH]cc3c2c1 [Example #221, (8-Methoxy-2H-pyrazolo[3,4-c]quinolin-4-yl)-(3-piperazin-1-yl-phenyl)-amine] | < 5 µM | 100 to 1000 nM | 100 to 1000 nM |
| CCN(CC)CCNC(=O)c1ccc(Nc2nc3ccc(OC)cc3c3c[nH]nc23)cc1 [Example #222, N-(2-Diethylamino-ethyl)-4-(8-methoxy-2H-pyrazolo[3,4-c]quinolin-4-ylamino)-benzamide] | < 5 µM | < 10 nM | 100 to 1000 nM |
| COc1ccc2nc(Nc3cnc(N4CCN(C)CC4)nc3)c3n[nH]cc3c2c1 [Example #223, (8-Methoxy-2H-pyrazolo[3,4-c]quinolin-4-yl)-[2-(4-methyl-piperazin-1-yl)-pyrimidin-5-yl]-amine] | < 5 µM | 100 to 1000 nM | 100 to 1000 nM |
| COc1ccc2nc(Nc3cccc(N4CCN(C)CC4)c3)c3n[nH]cc3c2c1 [Example #228, (8-Methoxy-2H-pyrazolo[3,4-c]quinolin-4-yl)-[3-(4-methyl-piperazin-1-yl)-phenyl]-amine] | < 5 µM | 10 to 100 nM | 100 to 1000 nM |
| COc1ccc2nc(Nc3cccc(OCCN4CCNCC4)c3)c3n[nH]cc3c2c1 [Example #229, (8-Methoxy-2H-pyrazolo[3,4-c]quinolin-4-yl)-[3-(2-piperazin-1-yl-ethoxy)-phenyl]-amine] | < 5 µM | 100 to 1000 nM | 100 to 1000 nM |
| COc1ccc2nc(Nc3cnc4c(c3)CN(C)CC4)c3n[nH]cc3c2c1 [Example #230, (8-Methoxy-2H-pyrazolo[3,4-c]quinolin-4-yl)-(6-methyl-5,6,7,8-tetrahydro-[1,6]naphthyridin-3-yl)-amine] | < 5 µM | 100 to 1000 nM | 100 to 1000 nM |
| COc1ccc2nc(Nc3ccc(C(=O)N4CCOCC4)cc3)c3n[nH]cc3c2c1 [Example #232, [4-(8-Methoxy-2H-pyrazolo[3,4-c]quinolin-4-ylamino)-phenyl]-morpholin-4-yl-methanone] | < 5 µM | 10 to 100 nM | 100 to 1000 nM |
| COc1ccc2nc(Nc3ccc(CN4CCCC4)cc3)c3n[nH]cc3c2c1 [Example #234, (8-Methoxy-2H-pyrazolo[3,4-c]quinolin-4-yl)-(4-pyrrolidin-1-ylmethyl-phenyl)-amine] | < 5 µM | 10 to 100 nM | 10 to 100 nM |

Second part, the molecule after the results:

| IC50 (MYLK) | Ki (SYK kinase) | IC50 (LRRK2) | SMILES |
| --- | --- | --- | --- |
| < 5 µM | 10 to 100 nM | 10 to 100 nM | COc1ccc2nc(Nc3ccc(C(=O)N4CCN(C)CC4)cc3)c3n[nH]cc3c2c1 [Example #235, (4-((8-methoxy-2H-pyrazolo[3,4-c]quinolin-4-yl)amino)phenyl)(4-methylpiperazin-1-yl)methanone] |
| < 5 µM | 10 to 100 nM | 10 to 100 nM | COc1ccc2nc(Nc3ccc(CN4CCOCC4)cc3)c3n[nH]cc3c2c1 [Example #237, (8-Methoxy-2H-pyrazolo[3,4-c]quinolin-4-yl)-(4-morpholin-4-ylmethyl-phenyl)-amine] |
| < 5 µM | 10 to 100 nM | 100 to 1000 nM | COc1ccc2nc(Nc3ccc(CN4CCN(C)CC4)cc3)c3n[nH]cc3c2c1 [Example #238, (8-Methoxy-2H-pyrazolo[3,4-c]quinolin-4-yl)-[4-(4-methyl-piperazin-1-ylmethyl)-phenyl]-amine] |
| < 5 µM | 10 to 100 nM | 100 to 1000 nM | CCN1CCN(c2ccc(Nc3nc4c(OC)cccc4c4c[nH]nc34)cc2)CC1 [Example #239, [4-(4-Ethyl-piperazin-1-yl)-phenyl]-(6-methoxy-2H-pyrazolo[3,4-c]quinolin-4-yl)-amine] |
| < 5 µM | 10 to 100 nM | 10 to 100 nM | CCN1CCN(c2ccc(Nc3nc4ccc(OC)cc4c4c[nH]nc34)cc2F)CC1 [Example #240, [4-(4-ethyl-piperazin-1-yl)-3-fluorophenyl]-(8-methoxy-2H-pyrazolo[3,4-c]quinolin-4-yl)-amine] |
| < 5 µM | 10 to 100 nM | 100 to 1000 nM | COc1cccc2c1nc(Nc1ccc3c(c1)NC(=O)CCC3)c1n[nH]cc12 [Example #241, 8-((6-methoxy-2H-pyrazolo[3,4-c]quinolin-4-yl)amino)-4,5-dihydro-1H-benzo[b]azepin-2(3H)-one] |
| < 5 µM | 10 to 100 nM | 100 to 1000 nM | COc1cccc2c1nc(Nc1ccc3[nH]cnc3c1)c1n[nH]cc12 [Example #242, (1H-benzoimidazol-5-yl)-(6-methoxy-2H-pyrazolo[3,4-c]quinolin-4-yl)-amine] |
| < 5 µM | 10 to 100 nM | 100 to 1000 nM | COc1cccc2nc(Nc3ccc(N4CCN(C5CC5)CC4)cc3)c3n[nH]cc3c12 [Example #243, [4-(4-cyclopropyl-piperazin-1-yl)-phenyl]-(9-methoxy-2H-pyrazolo[3,4-c]quinolin-4-yl)-amine] |
| < 5 µM | 100 to 1000 nM | 100 to 1000 nM | COc1ccc2nc(Nc3ccc(OCCN(C)C)nc3)c3n[nH]cc3c2c1 [Example #245, [6-(2-Dimethylamino-ethoxy)-pyridin-3-yl]-(8-methoxy-2H-pyrazolo[3,4-c]quinolin-4-yl)-amine] |
| < 5 µM | < 10 nM | 100 to 1000 nM | COc1cccc2c1nc(Nc1ccc(N3CCOCC3)c(F)c1)c1n[nH]cc12 [Example #246, (3-Fluoro-4-morpholin-4-yl-phenyl)-(6-methoxy-2H-pyrazolo[3,4-c]quinolin-4-yl)-amine] |
| < 5 µM | 100 to 1000 nM | 100 to 1000 nM | COc1cccc2c1nc(Nc1ccc3[nH]c(C)nc3c1)c1n[nH]cc12 [Example #248, (6-Methoxy-2H-pyrazolo[3,4-c]quinolin-4-yl)-(2-methyl-1H-benzoimidazol-5-yl)-amine] |
| < 5 µM | < 10 nM | 100 to 1000 nM | COc1cc(OC)c2nc(Nc3ccc(OC)c(OC)c3)c3n[nH]cc3c2c1 [Example #251, (3,4-Dimethoxy-phenyl)-(6,8-dimethoxy-2H-pyrazolo[3,4-c]quinolin-4-yl)-amine] |
| < 5 µM | 100 to 1000 nM | 100 to 1000 nM | COc1cc(OC)c2nc(Nc3ccc(N4CCN(C5CC5)CC4)cc3)c3n[nH]cc3c2c1 [Example #252, [4-(4-Cyclopropyl-piperazin-1-yl)-phenyl]-(6,8-dimethoxy-2H-pyrazolo[3,4-c]quinolin-4-yl)-amine] |
| < 5 µM | 100 to 1000 nM | 100 to 1000 nM | COc1ccc2nc(Nc3ccc(NCCCN(C)C)nc3)c3n[nH]cc3c2c1 [Example #253, N2-(3-(dimethylamino)propyl)-N5-(8-methoxy-2H-pyrazolo[3,4-c]quinolin-4-yl)pyridine-2,5-diamine] |
| < 5 µM | 10 to 100 nM | 100 to 1000 nM | COc1ccc2nc(Nc3ccc(NCCN(C)C)nc3)c3n[nH]cc3c2c1 [Example #254, N2-(2-(dimethylamino)ethyl)-N5-(8-methoxy-2H-pyrazolo[3,4-c]quinolin-4-yl)pyridine-2,5-diamine] |
